Experiments:
[1] = DRUGMATRIX: Interleukin IL-1 radioligand binding (ligand: [125I] interleukin 1beta); format: cell membranes, Membrane; settings: nih3t3; Not Active = under 50% inhibition at 10 µM
[2] = target: Aldo-keto reductase family 1 member B1 (Rattus norvegicus, UniProt P07943); experiment: biochemical; format: tissue-based, Lens of camera-type eye;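 also: inhibition of aldose reductase enzyme activity, measured with DL-glyceraldehyde as the substrate; in other assays of this panel Not Active means under 50% inhibition at 10 µM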
Acetylcholinesterase = Acetylcholinesterase (Homo sapiens, UniProt P22303); experiment: DRUGMATRIX: Acetylcholinesterase enzyme inhibition (substrate: acetylthiocholine); format: cell-based, HEK293; settings: hek293; Not Active = under 50% inhibition at 10 µM
[3] = target: T1, Alpha-2A adrenergic receptor (Homo sapiens, UniProt P08913); format: cell membranes, Sf9, Membrane; settings: sf9; also: in other assays of this panel Not Active means under 50% inhibition at 10 µM
T1 sequence (P08913 whole entry): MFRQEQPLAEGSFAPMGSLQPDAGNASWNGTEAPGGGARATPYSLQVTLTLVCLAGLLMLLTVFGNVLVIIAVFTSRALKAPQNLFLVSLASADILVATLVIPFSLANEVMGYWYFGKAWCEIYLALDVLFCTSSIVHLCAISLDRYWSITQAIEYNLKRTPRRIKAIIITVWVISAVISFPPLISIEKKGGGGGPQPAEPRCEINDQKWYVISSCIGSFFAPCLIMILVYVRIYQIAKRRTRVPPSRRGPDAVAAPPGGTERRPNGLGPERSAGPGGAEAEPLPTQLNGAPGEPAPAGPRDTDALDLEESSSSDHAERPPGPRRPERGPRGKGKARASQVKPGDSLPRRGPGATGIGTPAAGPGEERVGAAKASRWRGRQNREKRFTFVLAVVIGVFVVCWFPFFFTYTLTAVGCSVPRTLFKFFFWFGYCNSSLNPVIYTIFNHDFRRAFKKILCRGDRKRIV

Interstitial collagenase = target: T2, Interstitial collagenase (Homo sapiens, UniProt P03956); experiment: biochemical; format: tissue-based, Rheumatoid synovial fibroblasts;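 also: MMP-1 enzyme inhibition assay using a peptide substrate; in other assays of this panel Not Active means under 50% inhibition at 10 µM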
T2 sequence (P03956 whole entry): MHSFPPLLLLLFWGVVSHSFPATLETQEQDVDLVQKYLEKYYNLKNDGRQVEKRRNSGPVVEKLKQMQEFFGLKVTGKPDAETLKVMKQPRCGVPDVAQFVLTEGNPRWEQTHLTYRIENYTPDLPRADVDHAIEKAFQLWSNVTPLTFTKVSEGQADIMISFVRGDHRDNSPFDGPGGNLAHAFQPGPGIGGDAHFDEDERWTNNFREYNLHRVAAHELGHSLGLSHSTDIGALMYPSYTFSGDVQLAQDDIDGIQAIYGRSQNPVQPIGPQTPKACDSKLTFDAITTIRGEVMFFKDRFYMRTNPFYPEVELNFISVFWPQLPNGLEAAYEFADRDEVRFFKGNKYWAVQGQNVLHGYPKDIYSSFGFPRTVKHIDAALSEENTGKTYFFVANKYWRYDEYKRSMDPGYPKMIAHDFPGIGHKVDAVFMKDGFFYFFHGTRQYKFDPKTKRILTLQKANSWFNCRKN

Chain of Acetylcholinesterase (P22303 whole entry): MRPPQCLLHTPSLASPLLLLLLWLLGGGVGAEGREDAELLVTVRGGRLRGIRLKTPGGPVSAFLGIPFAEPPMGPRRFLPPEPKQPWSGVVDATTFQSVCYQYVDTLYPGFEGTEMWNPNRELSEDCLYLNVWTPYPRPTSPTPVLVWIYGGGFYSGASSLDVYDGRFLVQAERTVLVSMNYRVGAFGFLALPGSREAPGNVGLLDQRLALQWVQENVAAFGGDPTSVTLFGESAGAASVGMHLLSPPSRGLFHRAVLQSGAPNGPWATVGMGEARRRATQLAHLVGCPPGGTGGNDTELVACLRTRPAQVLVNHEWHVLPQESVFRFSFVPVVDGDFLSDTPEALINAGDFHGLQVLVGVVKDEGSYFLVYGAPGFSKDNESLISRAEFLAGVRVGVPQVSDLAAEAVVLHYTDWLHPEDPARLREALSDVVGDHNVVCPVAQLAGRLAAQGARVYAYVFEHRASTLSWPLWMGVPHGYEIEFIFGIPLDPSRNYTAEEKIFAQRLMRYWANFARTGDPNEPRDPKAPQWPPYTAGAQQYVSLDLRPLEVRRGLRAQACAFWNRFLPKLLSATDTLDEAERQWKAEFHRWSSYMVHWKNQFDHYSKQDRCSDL

| SMILES | IC50 [1] | Ki [1] | IC50 [2] | IC50 (Acetylcholinesterase) | IC50 [3] | IC50 (Interstitial collagenase) | IC50 (Interstitial collagenase; read-out: IC50) [µM] |
| --- | --- | --- | --- | --- | --- | --- | --- |
| O=C(N[C@H](CO)[C@H](O)c1ccc([N+](=O)[O-])cc1)C(Cl)Cl [CHLORAMPHENICOL] | Not Active | Not Active | Not Active | Not Active | Not Active | Not Active | – |
| Cn1c(=O)c2c(ncn2CC2OCCO2)n(C)c1=O [DOXOFYLLINE] | Not Active | Not Active | Not Active | Not Active | Not Active | Not Active | – |
| CCC1=C[C@@H]2CN(C1)Cc1c([nH]c3ccccc13)[C@@](C(=O)OC)(c1cc3c(cc1OC)N(C)[C@H]1[C@@](O)(C(=O)OC)[C@H](OC(C)=O)[C@]4(CC)C=CCN5CC[C@]31[C@@H]54)C2 [VINORELBINE] | Not Active | Not Active | Not Active | Not Active | Not Active | Not Active | – |
| CC(C(=O)O)c1cccc(C(=O)c2ccccc2)c1 (stereo unspecified) [KETOPROFEN] | Not Active | Not Active | Not Active | Not Active | Not Active | Not Active | – |
| O=c1ccc2ccccc2o1 [COUMARIN] | Not Active | Not Active | Not Active | Not Active | Not Active | Not Active | – |
| CC1(C)O[C@@H]2C[C@H]3[C@@H]4C[C@H](F)C5=CC(=O)C=C[C@]5(C)[C@H]4[C@@H](O)C[C@]3(C)[C@]2(C(=O)CO)O1 [FLUNISOLIDE] | Not Active | Not Active | Not Active | Not Active | Not Active | Not Active | – |
| CC1(C)O[C@@H]2C[C@H]3[C@@H]4C[C@H](F)C5=CC(=O)C=C[C@]5(C)[C@@]4(F)[C@@H](O)C[C@]3(C)[C@]2(C(=O)CO)O1 [FLUOCINOLONE ACETONIDE] | Not Active | Not Active | Not Active | Not Active | Not Active | Not Active | – |
| N=C(Nc1ccccc1)Nc1ccccc1 | Not Active | Not Active | Not Active | Not Active | Not Active | Not Active | – |
| CC[C@@H](CO)NCCN[C@@H](CC)CO [ETHAMBUTOL] | Not Active | Not Active | Not Active | Not Active | Not Active | Not Active | – |
| CN1C(=O)COc2c(C(=O)NC3CN4CCC3CC4)cc(Cl)cc21 (stereo unspecified) [AZASETRON] | Not Active | Not Active | Not Active | Not Active | Not Active | Not Active | – |
| O=NN(CCCl)C(=O)NCCCl [CARMUSTINE] | Not Active | Not Active | Not Active | Not Active | Not Active | Not Active | – |
| O=C(C1CCCCC1)N1CC(=O)N2CCc3ccccc3C2C1 (stereo unspecified) [PRAZIQUANTEL] | Not Active | Not Active | Not Active | Not Active | Not Active | Not Active | – |
| C[C@]12CC[C@@H]3c4ccc(OC(=O)c5ccccc5)cc4CC[C@H]3[C@@H]1CC[C@@H]2O [ESTRADIOL BENZOATE] | Not Active | Not Active | Not Active | Not Active | Not Active | Not Active | – |
| C[N+](C)(C)CCO.[Cl-] [CHOLINE CHLORIDE] | Not Active | Not Active | Not Active | Not Active | Not Active | Not Active | – |
| NC(=O)NO [HYDROXYUREA] | Not Active | Not Active | Not Active | Not Active | Not Active | Not Active | – |
| C[C@@]12C(=O)OC(=O)[C@]1(C)[C@H]1CC[C@@H]2O1 [CANTHARIDIN] | Not Active | Not Active | Not Active | Not Active | Not Active | Not Active | – |
| O=S(=O)([O-])CCS.[Na+] [MESNA] | Not Active | Not Active | Not Active | Not Active | Not Active | Not Active | – |

| SMILES | IC50 [1] | Ki [1] | IC50 [2] | IC50 (Acetylcholinesterase) | IC50 [3] | IC50 (Interstitial collagenase) | IC50 (Interstitial collagenase; read-out: IC50) [µM] |
| --- | --- | --- | --- | --- | --- | --- | --- |
| CCN[C@@H]1C[C@H](N)[C@@H](O[C@H]2OC(CN)=CC[C@H]2N)[C@H](O)[C@H]1O[C@H]1OC[C@](C)(O)[C@H](NC)[C@H]1O [NETILMICIN] | Not Active | Not Active | Not Active | Not Active | Not Active | Not Active | – |
| C/C=C/C[C@@H](C)[C@@H](O)[C@H]1C(=O)N[C@@H](CC)C(=O)N(C)CC(=O)N(C)[C@@H](CC(C)C)C(=O)N[C@@H](C(C)C)C(=O)N(C)[C@@H](CC(C)C)C(=O)N[C@@H](C)C(=O)N[C@H](C)C(=O)N(C)[C@@H](CC(C)C)C(=O)N(C)[C@@H](CC(C)C)C(=O)N(C)[C@@H](C(C)C)C(=O)N1C [CYCLOSPORINE] | Not Active | Not Active | Not Active | Not Active | Not Active | Not Active | – |
| CCOC(=O)C(C)(C)Oc1ccc(Cl)cc1 [CLOFIBRATE] | Not Active | Not Active | Not Active | Not Active | Not Active | Not Active | – |
| C#C[C@]1(OC(C)=O)CC[C@H]2[C@@H]3CCC4=CC(=O)CC[C@@H]4[C@H]3CC[C@@]21C [NORETHINDRONE ACETATE] | Not Active | Not Active | Not Active | Not Active | Not Active | Not Active | – |
| COC(=O)C1=C(C)NC(C)=C(C(=O)OCC(C)C)C1c1ccccc1[N+](=O)[O-] (stereo unspecified) [NISOLDIPINE] | Not Active | Not Active | Not Active | Not Active | Not Active | Not Active | – |
| CC(=O)Nc1c(I)c(NC(C)=O)c(I)c(C(=O)O)c1I [DIATRIZOIC ACID] | Not Active | Not Active | Not Active | Not Active | Not Active | Not Active | – |
| C[C@@H]1C[C@@H]([C@H](O)CC2CC(=O)NC(=O)C2)C(=O)[C@@H](C)C1 [CYCLOHEXIMIDE] | Not Active | Not Active | Not Active | Not Active | Not Active | Not Active | – |
| Cc1cc(=O)n(-c2ccccc2)n1C [ANTIPYRINE] | Not Active | Not Active | Not Active | Not Active | Not Active | Not Active | – |
| CC1(C)O[C@@H]2C[C@H]3[C@@H]4C[C@H](F)C5=CC(=O)CC[C@]5(C)[C@H]4[C@@H](O)C[C@]3(C)[C@]2(C(=O)CO)O1 [FLURANDRENOLIDE] | Not Active | Not Active | Not Active | Not Active | Not Active | Not Active | – |
| CC(=O)OCC(=O)[C@@]1(O)CC[C@H]2[C@@H]3CCC4=CC(=O)CC[C@]4(C)[C@H]3C(=O)C[C@@]21C [CORTISONE ACETATE] | Not Active | Not Active | Not Active | Not Active | Not Active | Not Active | – |
| CCN1CC(CCN2CCOCC2)C(c2ccccc2)(c2ccccc2)C1=O (stereo unspecified) [DOXAPRAM] | Not Active | Not Active | Not Active | Not Active | Not Active | Not Active | – |
| NC(=O)c1cnccn1 [PYRAZINAMIDE] | Not Active | Not Active | Not Active | Not Active | Not Active | Not Active | – |
| O=C1CC[C@H](N2C(=O)c3ccccc3C2=O)C(=O)N1 | Not Active | Not Active | Not Active | Not Active | Not Active | Not Active | – |
| ClC(Cl)Cl [CHLOROFORM] | Not Active | Not Active | Not Active | Not Active | Not Active | Not Active | – |
| CCc1c2c(nc3ccc(OC(=O)N4CCC(N5CCCCC5)CC4)cc13)-c1cc3c(c(=O)n1C2)COC(=O)[C@]3(O)CC [IRINOTECAN] | Not Active | Not Active | Not Active | – | Not Active | – | 6.06 |
| COc1ccc2cc([C@H](C)C(=O)O)ccc2c1 [NAPROXEN] | Not Active | Not Active | Not Active | – | Not Active | Not Active | – |

From ChEMBL document CHEMBL1909046, “DrugMatrix in vitro pharmacology data”
